Measurements taken from patent US8569288B2, “Thienotriazolodiazepine derivatives active on apo A” (CircoMed LLC, priority 2008, dated 2013).

Legend:
[1] = test system: plasma apolipoprotein A1 (apo A1); conditions: as described in U.S. Pat. No. 5,854,238; cited from earlier work
[2] = test system: central benzodiazepine receptor (BZD); assay: Binding to central benzodiazepine receptor, [3H]flunitrazepam displacement on rat cerebral cortex membranes
Description: Affinity of the compounds of the invention to the central benzodiazepine receptor (BZD) was measured by determining the binding of 0.4 nM [^3H]flunitrazepam to rat cerebral cortex membranes, and its displacement by compounds of the invention as compared to the reference ligand diazepam, at 4° C. for 60 min, as described by R. C. Speth et al., Life Sci. 24:351-358 (1979).
The specific binding to the receptors is defined as the difference between the total binding and the non-specific binding determined in the presence of an excess of unlabeled ligand (diazepam). The results are expressed as a percent of control specific binding ((measured specific binding/control specific binding)×100) obtained in the presence of compound 5, 6 and 7.
In each experiment, the respective reference compound was tested concurrently with compound 5, 6 and 7 in order to assess the assay suitability. It was tested at several concentrations (for IC50 value determination).

[3] = test system: apo A1 secretion in human hepatocytes; assay: Apo A1 secretion by human hepatocytes (ELISA of supernatant, normalised to cell protein); type: cell-based; conditions: for Apo A1 (ng secreted per mg cell protein), 1st / Apo A1 (ng secreted per mg cell protein), 2nd / Apo A1 (ng secreted per mg cell protein), mean: 3x24 h; for Apo A1 (ng secreted per mg cell protein), 1st: 1st parallel measurement; for Apo A1 (ng secreted per mg cell protein), 2nd: 2nd parallel measurement; for Apo A1 (ng secreted per mg cell protein), mean: mean of two measurements
Description: Human hepatocytes were isolated from pieces of livers, obtained from donors which could not be used for transplantation, following the procedure described in U.S. Pat. No. 6,444,664. The cells were seeded on culture dishes at a density of 1.5×10^5 viable cells per cm^2 and were maintained for the first 24 h in 1.5 mL per 10 cm^2 of Williams E medium supplemented with 10% heat inactivated fetal calf serum (FCS), 2 mmol/L L-glutamine, 20 mU/mL insulin (135 nmol/L), 50 nmol/L dexamethasone, 100 U/mL penicillin, 100 μg/mL streptomycin and 100 μg/mL kanamycin at 37° C. in a 5% CO2/95% air atmosphere. After 14-16 h the non-adherent cells were washed from the plates, using the same culture medium as described above. 24 h after seeding, the incubations with the compounds were started in 1 mL of the same culture medium, but with an insulin concentration of 10 nmol/L instead of 135 nmol/L.
The human hepatocytes were treated with compounds 5, 6 and 7 (dissolved in DMSO, with the final concentration of DMSO not exceeding 0.1% v/v) at concentrations of 100 μM, 30 μM, 10 μM and 3 μM and incubated for 24 hours. The DMSO concentration in all samples and controls was 0.1%. The control wells contained DMSO (0.1% v/v) alone. The medium on the cells was removed and replaced with fresh medium with fresh compound and incubated for 24 hours. The medium was then again removed and replaced with fresh medium with fresh compound and incubated for another 24 hours. The supernatant was then removed from the cells and levels of apo A1 were determined using a commercially available ELISA (AlerCHEK™) with a HRP conjugated goat anti-apo A1 antibody and TMB/peroxidase substrate colour developer. Supernatants were diluted 1:4 with the wash buffer provided in the kit.
After the last incubation the cells were washed twice with PBS, and BCA (bicinchoninic acid) reagent was added to each well to assay total cellular protein according to standard methods.

[4] = 10^−5 M, 0.4 nM [3H]flunitrazepam
[5] = 10^−6 M, 0.4 nM [3H]flunitrazepam
[6] = 10^−7 M, 0.4 nM [3H]flunitrazepam
[7] = 10^−8 M, 0.4 nM [3H]flunitrazepam

SMILES: Cc1nnc2n1-c1sccc1C(c1ccccc1)=NC2 [compound 7, 9-Methyl-4-phenyl-6H-thieno[3,2-f]-s-triazolo[4,3-a][1,4]diazepine, reference compound]
- Activity in increasing plasma apo A1 (in words) [1]: active in increasing plasma apolipoprotein A1
- Affinity to the benzodiazepine receptor (in words) [2]: moderate affinity
- IC50 ([2]; 0.4 nM [3H]flunitrazepam, rat cerebral cortex membranes, read-out: IC50 of displacing the labelled ligand): ~500 nM
- % of control specific binding, 1st [2, 4]: 2.3 % of control specific binding
- % of control specific binding, 2nd [2, 4]: 1.8 % of control specific binding
- % of control specific binding, mean [2, 4]: 2.1 % of control specific binding
- % of control specific binding, 1st [2, 5]: 18.9 % of control specific binding
- % of control specific binding, 2nd [2, 5]: 17.9 % of control specific binding
- % of control specific binding, mean [2, 5]: 18.4 % of control specific binding
- % of control specific binding, 1st [2, 6]: 73.5 % of control specific binding
- % of control specific binding, 2nd [2, 6]: 68.0 % of control specific binding
- % of control specific binding, mean [2, 6]: 70.7 % of control specific binding
- % of control specific binding, 1st [2, 7]: 89.0 % of control specific binding
- % of control specific binding, 2nd [2, 7]: 104.1 % of control specific binding
- % of control specific binding, mean [2, 7]: 96.5 % of control specific binding
- Apo A1 (ng secreted per mg cell protein), 1st ([3]; 3 μM): 91 ng secreted per mg cell protein
- Apo A1 (ng secreted per mg cell protein), 2nd ([3]; 3 μM): 91 ng secreted per mg cell protein
- Apo A1 (ng secreted per mg cell protein), mean ([3]; 3 μM): 91 ng secreted per mg cell protein
- Apo A1 (ng secreted per mg cell protein), 1st ([3]; 10 μM): 266 ng secreted per mg cell protein
- Apo A1 (ng secreted per mg cell protein), 2nd ([3]; 10 μM): 191 ng secreted per mg cell protein
- Apo A1 (ng secreted per mg cell protein), mean ([3]; 10 μM): 229 ng secreted per mg cell protein
- Apo A1 (ng secreted per mg cell protein), 1st ([3]; 30 μM): 236 ng secreted per mg cell protein
- Apo A1 (ng secreted per mg cell protein), 2nd ([3]; 30 μM): 374 ng secreted per mg cell protein
- Apo A1 (ng secreted per mg cell protein), mean ([3]; 30 μM): 305 ng secreted per mg cell protein
- Apo A1 (ng secreted per mg cell protein), 1st ([3]; 100 μM): 254 ng secreted per mg cell protein
- Apo A1 (ng secreted per mg cell protein), 2nd ([3]; 100 μM): 364 ng secreted per mg cell protein
- Apo A1 (ng secreted per mg cell protein), mean ([3]; 100 μM): 309 ng secreted per mg cell protein
- Stimulation of apo A1 secretion versus control level (in words) ([3]; at concentrations as low as 3 μM, human hepatocytes): clearly less active
